Reference: patent US6914075B2, “Cystine derivative and agent for suppressing activation of inflammatory factors” (Ajinomoto Co., Inc., priority 2001, dated 2005)

Test system: NF-κB
Assay: Test of the potency of NF-κB activation suppression (gel shift assay, UVB-irradiated human epidermal cells)
Assay type: cell-based
Conditions: added 18 h before UVB 50 mJ/cm^2, nuclear protein 4 to 5 hours later
Description: Test compounds shown in Table 1 were added individually to human epidermal cells at confluency in a culture plate. 18 hours later, the culture broth was exchanged with a phenol red-free culture medium. Using Dermalei M-DMR-80 (manufactured by Toshiba Medical Supplies, Co., Ltd.), the cells were irradiated with an ultraviolet ray (UVB: 50 mJ/cm^2). 4 to 5 hours later, the cells were recovered and the nuclear protein was extracted using a general method. By using a gel shift assay method, the activated NF-κB in the resulting nuclear protein was detected. Determination of NF-κB was conducted based on counting the radioactivity of labeled NF-κB using a bioimaging analyzer BAS2000 (manufactured by Fuji Film Co., Ltd.). The ratio of NF-κB activation suppression by the inventive compounds compared with a test compound was calculated by the following formula (1). Ratio (%) of NF-κB activation suppression=[1-(A1−A3)/(A2−A3)]×100 (1)
A1: radioactivity of NF-κB band with addition of test compound
A2: radioactivity of NF-κB band without addition of test compound
A3: radioactivity of NF-κB band without addition of test compound and without ultraviolet irradiation

SMILES	Suppression ratio (%) of NF-κB activation (test compound 10 mM) [%]	Suppression ratio (%) of NF-κB activation (test compound 30 mM) [%]	Suppression ratio (%) of NF-κB activation (test compound 0.1 mM) [%]	Suppression ratio (%) of NF-κB activation (test compound 0.5 mM) [%]	Suppression ratio (%) of NF-κB activation (test compound 1.0 mM) [%]
CC(=O)N[C@@H](CSSC[C@H](NC(C)=O)C(=O)O)C(=O)O [N,N′-Diacetyl-L-cystine]	48	67			
O=C(O)[C@H](CSSC[C@H](NCc1ccccc1O)C(=O)O)NCc1ccccc1O [N,N′-Bis(2-hydroxybenzyl)-L-cystine]			41	86	> 100
O=C(O)[C@H](CO)NCc1ccccc1O [N-(2-Hydroxybenzyl)-L-serine]	17	34			
